This passage reports Ki results from paper PMC6366436 (Journal of Enzyme Inhibition and Medicinal Chemistry, 2019).

The structures appear in SMILES notation. pKi: −log10 of the molar value.

The target in assay [1] is T1, CgNce103 (Nakaseomyces glabratus, UniProt Q6FTL6).
T1 construct: gene NCE103
Format: biochemical. As to conditions: read-out: FAM.

For assay [2], the target named is T2, VchCAγ (Vibrio cholerae, UniProt Q9KVT1).
T2 construct: gene VC_0058
As to conditions: read-out: FAM; TRIS pH 8.3, 0.1 M Na2SO4, 25 °C; 15 min pre-incubation.

Assay [3] deals with Can2 (Cryptococcus neoformans, UniProt Q3I4V7). Type of assay: biochemical. Particulars: read-out: FAM.
Assay [4] concerns the target T3, NcoCAγ (Nostoc commune, UniProt A0A2R5FUA4).
T3 construct: gene NIES4072_30780
Format: biochemical. As to conditions: TRIS pH 8.3, 0.1 M Na2SO4, 25 °C; 15 min pre-incubation; read-out: FAM.

Assay [5] concerns the target T4, MgaCA (Malassezia globosa, UniProt A8Q1N3).
T4 construct: gene MGL_1814
Type of assay: biochemical. As to conditions: read-out: FAM.

Assay [6] addresses T5, BpsCAγ.
T5 construct: gene BpsCAgamma
Particulars: read-out: FAM.

For assay [7], the target named is T6, BpsCAβ (Burkholderia pseudomallei, UniProt Q63Y17).
T6 construct: gene BPSL0372
Format: biochemical. Particulars: read-out: FAM.

The target of assay [8] is T7, PfCA (Plasmodium falciparum, UniProt Q8IHW5).
T7 construct: gene PF3D7_1140000
Format: biochemical. As to conditions: Hepes pH 7.5, 0.1 M Na2SO4, 25 °C; 15 min pre-incubation; read-out: FAM.

The target of assay [9] is T8, VchCAβ (Vibrio cholerae, UniProt A0A086SLX8).
T8 construct: gene can
The assay is described as follows: biochemical.

Assay [10] addresses T9, VchCAα (Vibrio cholerae, UniProt Q9KMP6).
T9 construct: gene VC_A0274
Particulars: read-out: FAM; Hepes pH 7.5, 0.1 M Na2SO4, 25 °C; 15 min pre-incubation.

Assay [11] has as its target TcCA. Particulars: read-out: FAM; Hepes pH 7.5, 0.1 M Na2SO4, 25 °C; 15 min pre-incubation.
For assay [12], the target named is T10, SazCA (Sulfurihydrogenibium azorense, UniProt C1DTU5).
T10 construct: gene SULAZ_0541
Format: biochemical. Particulars: read-out: FAM.

In assay [13] the target is T11, TweCAδ (Conticribra weissflogii, UniProt Q5U9J1).
T11 construct: gene ca1
Format: biochemical. Particulars: Hepes pH 7.5, 0.1 M Na2SO4, 25 °C; 15 min pre-incubation; read-out: FAM.

Assay [14] has as its target CpsCAγ. Particulars: read-out: FAM; TRIS pH 8.3, 0.1 M Na2SO4, 25 °C; 15 min pre-incubation.
In assay [15] the target is Carbonate dehydratase (Sulfurihydrogenibium sp. (strain YO3AOP1), UniProt B2V8E3). Nature of the assay: biochemical.
Assay [16] concerns the target T12, PhaCAγ.
T12 construct: gene PhaCA
Particulars: read-out: FAM; TRIS pH 8.3, 0.1 M Na2SO4, 25 °C; 15 min pre-incubation.

T7 sequence (Q8IHW5 entry or part of it): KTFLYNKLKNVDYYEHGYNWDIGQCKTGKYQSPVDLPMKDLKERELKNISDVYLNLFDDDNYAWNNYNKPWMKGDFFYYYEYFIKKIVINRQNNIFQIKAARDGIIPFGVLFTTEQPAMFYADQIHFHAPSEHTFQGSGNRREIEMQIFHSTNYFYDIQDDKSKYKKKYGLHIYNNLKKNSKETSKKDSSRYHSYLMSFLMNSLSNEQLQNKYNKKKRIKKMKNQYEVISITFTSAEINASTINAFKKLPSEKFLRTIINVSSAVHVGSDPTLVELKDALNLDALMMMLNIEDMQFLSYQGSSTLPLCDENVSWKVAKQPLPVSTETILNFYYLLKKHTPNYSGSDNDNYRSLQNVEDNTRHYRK
Chain of Can2 (Q3I4V7 entry or part of it): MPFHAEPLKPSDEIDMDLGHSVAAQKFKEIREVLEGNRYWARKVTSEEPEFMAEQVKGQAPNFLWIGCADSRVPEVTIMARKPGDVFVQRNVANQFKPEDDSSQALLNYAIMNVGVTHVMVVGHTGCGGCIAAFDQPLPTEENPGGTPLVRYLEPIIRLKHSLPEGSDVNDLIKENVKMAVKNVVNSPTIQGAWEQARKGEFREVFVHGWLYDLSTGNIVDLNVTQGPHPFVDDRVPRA
T10 sequence (C1DTU5 entry or part of it): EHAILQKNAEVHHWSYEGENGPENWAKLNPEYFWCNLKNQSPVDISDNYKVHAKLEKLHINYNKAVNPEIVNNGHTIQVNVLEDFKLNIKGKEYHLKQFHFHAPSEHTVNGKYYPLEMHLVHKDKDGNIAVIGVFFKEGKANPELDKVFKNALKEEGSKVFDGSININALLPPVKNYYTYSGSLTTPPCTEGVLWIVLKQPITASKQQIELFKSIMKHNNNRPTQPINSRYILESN
T11 sequence (Q5U9J1 entry or part of it): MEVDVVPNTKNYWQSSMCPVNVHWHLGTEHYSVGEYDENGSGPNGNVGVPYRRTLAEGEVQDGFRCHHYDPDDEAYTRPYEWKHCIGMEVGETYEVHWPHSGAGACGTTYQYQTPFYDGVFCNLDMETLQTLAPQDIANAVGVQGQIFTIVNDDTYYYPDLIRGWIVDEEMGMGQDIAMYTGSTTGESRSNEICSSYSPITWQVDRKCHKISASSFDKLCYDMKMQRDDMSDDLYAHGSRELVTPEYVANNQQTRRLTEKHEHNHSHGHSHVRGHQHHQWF
T2 sequence (Q9KVT1 1-184): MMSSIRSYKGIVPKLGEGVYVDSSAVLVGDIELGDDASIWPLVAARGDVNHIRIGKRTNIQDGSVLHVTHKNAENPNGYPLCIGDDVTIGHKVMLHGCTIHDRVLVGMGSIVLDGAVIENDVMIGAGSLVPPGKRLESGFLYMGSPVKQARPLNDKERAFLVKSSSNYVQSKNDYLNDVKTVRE
T6 sequence (Q63Y17 1-256): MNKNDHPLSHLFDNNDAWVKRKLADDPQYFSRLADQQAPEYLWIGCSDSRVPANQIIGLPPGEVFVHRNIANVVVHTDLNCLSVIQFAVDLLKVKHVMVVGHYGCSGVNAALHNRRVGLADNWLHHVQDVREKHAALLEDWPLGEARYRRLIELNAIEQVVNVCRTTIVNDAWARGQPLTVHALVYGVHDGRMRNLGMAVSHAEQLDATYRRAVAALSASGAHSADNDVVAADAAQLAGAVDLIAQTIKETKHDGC
T1 sequence (Q6FTL6 entry or part of it): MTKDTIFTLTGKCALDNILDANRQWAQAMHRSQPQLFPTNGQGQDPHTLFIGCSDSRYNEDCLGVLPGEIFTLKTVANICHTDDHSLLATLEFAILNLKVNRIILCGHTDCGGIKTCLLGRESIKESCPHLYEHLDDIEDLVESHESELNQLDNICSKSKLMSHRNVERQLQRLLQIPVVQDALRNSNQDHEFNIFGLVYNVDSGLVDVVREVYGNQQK
T9 sequence (Q9KMP6 21-239 limits assumed): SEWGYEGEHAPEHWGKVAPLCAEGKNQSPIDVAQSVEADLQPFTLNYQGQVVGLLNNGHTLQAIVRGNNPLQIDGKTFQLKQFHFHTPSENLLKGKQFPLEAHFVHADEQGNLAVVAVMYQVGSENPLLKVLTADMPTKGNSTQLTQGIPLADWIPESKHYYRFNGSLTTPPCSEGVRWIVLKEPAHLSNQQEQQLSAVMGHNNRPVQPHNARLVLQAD
Chain of CpsCAγ (UPI00051A3E8B entry or part of it): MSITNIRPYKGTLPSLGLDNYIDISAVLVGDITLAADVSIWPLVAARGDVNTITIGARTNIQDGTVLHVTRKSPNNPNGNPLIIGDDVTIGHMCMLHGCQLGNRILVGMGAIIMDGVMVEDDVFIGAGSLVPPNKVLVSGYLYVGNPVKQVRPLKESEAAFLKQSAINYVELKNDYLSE
T3 sequence (A0A2R5FUA4 entry or part of it): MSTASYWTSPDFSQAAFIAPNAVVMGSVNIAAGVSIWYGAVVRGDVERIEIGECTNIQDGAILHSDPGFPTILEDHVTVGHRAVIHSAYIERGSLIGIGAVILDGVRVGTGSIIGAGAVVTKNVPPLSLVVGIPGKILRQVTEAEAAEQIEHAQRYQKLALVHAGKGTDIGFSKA
T4 sequence (A8Q1N3 entry or part of it): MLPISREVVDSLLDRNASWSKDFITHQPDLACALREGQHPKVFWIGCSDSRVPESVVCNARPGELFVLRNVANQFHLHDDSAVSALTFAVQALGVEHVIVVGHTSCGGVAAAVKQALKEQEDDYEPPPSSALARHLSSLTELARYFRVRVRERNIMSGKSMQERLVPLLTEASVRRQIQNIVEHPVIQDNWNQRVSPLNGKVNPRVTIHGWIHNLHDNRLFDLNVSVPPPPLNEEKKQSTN
T8 sequence (A0A086SLX8 1-222): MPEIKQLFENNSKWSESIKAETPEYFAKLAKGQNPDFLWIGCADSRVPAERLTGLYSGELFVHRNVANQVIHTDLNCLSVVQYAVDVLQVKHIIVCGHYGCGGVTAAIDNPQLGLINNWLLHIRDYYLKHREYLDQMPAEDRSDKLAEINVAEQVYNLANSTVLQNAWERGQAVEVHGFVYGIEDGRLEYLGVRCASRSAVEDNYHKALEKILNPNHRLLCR

In the case of `NC(N)=Nc1nc(CSCCC(N)=NS(N)(=O)=O)cs1` [FAM, Famotidine], the pKi in [1] was 7.87; in assay [2], 5.27; in assay [3], 6.97; in [4] it was 5.77; in assay [5], 4.38; in assay [6] it was 5.08. Further, the pKi is 5.08 in assay [7]; 6.85 in assay [8]; 4.08 in [9]; 7.14 in assay [10]; 5.24 in assay [11]; 6.91 in assay [12]. The pKi is 6.39 in [13], 7.05 in assay [14], 6.64 in [15] and 7.18 in assay [16].
